Measured values taken from patent US20080269161A1, “Compositions and Methods Relating to Mitochondrial Hyperpolarization in Neurological Disease” (priority 2005, published 2008).
“Also recorded” adds a separate entry of the source. Where two headings read alike, the source gives them in different places.

How the values were obtained:
[1] = test system: mitochondrial membrane potential of rat cortical neurons; format: cell-based
Procedure: Curve fits are non-formulaic software interpolations of the data points.
Changes in mitochondrial function that could be associated with the increased vesicular activity were evaluated. Mitochondria generate the energy for synaptic transmission in the form of ATP, and as a byproduct of this oxidative phosphorylation, they are also one of the primary producers of intracellular ROS. Two key mitochondrial parameters were examined in response to Tat and PAF: 1) mitochondrial membrane potential (ΔΨm) [as assessed by mitochondrial uptake of the lipophilic cationic dyes tetramethylrhodamine ethyl or methyl ester (TMRE or TMRM respectively)], and 2) ATP production (as measured by luciferase assay). The electronegative mitochondrial membrane potential provides the driving force for calcium buffering and ATP production by the mitochondria, and as such, ΔΨm is frequently used as an indicator of mitochondrial health and energetic capacity. Moreover, fluctuations in ΔΨm can trigger mitochondrial release of pro-apoptotic factors, an event most frequently associated with a loss of ΔΨm.
Monitoring alterations in ΔΨm with TMRM: In the relevant methods described herein, changes in mitochondrial membrane potential (ΔΨm) in response to Tat or PAF treatment is assessed by TMRM, which must equilibrate across the plasma membrane before entering the mitochondria; and in whole cell applications dye concentration in the mitochondria is dependent on both plasma membrane potential (ΔΨp) and AΨm. At sufficiently low dye concentrations (TMRM =1 nM, i.e. high cell/dye ratio) and normal membrane potentials, ≧95% of the dye is in the mitochondria, and ≦1% in the media, which results in an approximately 100× sensitivity of the dye to ΔΨm over ΔΨp, given equivalent changes in plasma or mitochondrial membrane potential [Rottenberg, H. and S. Wu, Biochim Biophys Acta, 1998. 1404(3): p. 393-40].
For these methods, primary rodent neurons are treated with reagent under normal culture conditions for the indicated time period, followed by removal of the media, 1×2 minute wash in pre-warmed 37° C. HBSS plus 10 mM glucose and 10 mM HEPES (HBSS+), then incubation in HBSS+ with 1 nM TMRE/M. Following equilibration of the dye for 20 minutes to ensure distribution across the mitochondrial membrane, the cells are imaged while remaining in the 1 nM TMRE/M solution, as is necessary for a continued dye equilibrium state. Random field images are taken using an Olympus IX-70 microscope and 40× objective (fluorescent excitation: 545; emission: 610) and Apogee KX32ME CCD camera, and the mean relative fluorescent unit (RFU) value of the neuronal soma and processes (excluding mitochondria deficient regions) is quantified using Scanalytics IPLab software.

[2] = test system: CA1 pyramidal neurons in hippocampal slices; parameters: species or system rodent
Procedure: CA1 pyramidal neurons were exposed to 1 μM cPAF or vehicle for 30-60min and simultaneously imaged and recorded by whole-cell patch clamp before and after delivery of a high-frequency stimulus (HFS: three 1s, 100 Hz trains, every 20 s) applied to Schaffer collateral axons via a bipolar stimulating electrode planted in the stratum radiatum. (A) Dendrite beading in a cPAF-exposed cell 45min after HFS, with no disruption of dendrite or spine morphology in control cells. […] (C) Excitatory synaptic transmission between Shaffer collateral axons and CA1 pyramidal neurons is strongly potentiated following HFS in control slices. […] (EPSP traces at baseline and 40 min from representative control cell and cPAF-treated beaded cell are at right.) […]
Explant hippocampal slices are exposed to HIV-1 neurotoxins±agents that reverse mitochondrial hyperpolarization. Beading and LTP are then be measured:
Hippocampal slice preparation: Brains from anesthetized P14-28 rodents are rapidly removed and cooled in sucrose based artificial cerebrospinal fluid (ACSF) containing in mM: 110 sucrose, 60 NaCl, 3 KCl, 1.25 NaH2PO4, 28 NaHCO3, 10 D-glucose, 0.5 CaCl2, 7 MgSO4, 0.6 ascorbate. The brains are blocked and fixed to a specimen stage with cyanoacrylate. Coronal slices (250-400 μm in thickness) are cut with a vibroslicer (World Precision Instruments, Fla., USA) equipped with a Peltier cooling system. The middle four to six slices of each hippocampus (with the entorhinal cortex removed) are placed into a holding chamber prior to use.
Measuring dendritic beading and postsynaptic potentials in single CA1 cells in hippocampal slices: Dendritic arbors of individual CA1 pyramidal cells are imaged while simultaneously recording excitatory postsynaptic potentials in the same cell by patch clamp recordings in whole-cell configuration. Recording pipettes ([…] resistance) are pulled from 1.5 mm borosilicate glass using a horizontal Flaming/Brown micropipette puller (Sutter Instrument Co, Calif.), fire-polished, and filled with intracellular recording solution (in mM: KCl 20, potassium gluconate 130, EGTA 0.5, HEPES 10, MgSO4 2, ATP 2.5, GTP 0.5, pH 7.3). In order to visualize dendrites of the recorded cell, Alexa 568 hydrazide (30 μM) is included in the recording pipette and is injected by small negative current pulses for 15-20 min prior to recording in order to fill the dendritic arbor. Hippocampal slices are bathed in artificial CSF (containing, in mM: NaCl 125, KCl 2.5, NaH2PO4 1.25, NaHCO3 25, CaCl2 2, MgCl2 1, D-glucose 25, oxygenated and buffered with 5% CO2). Membrane potentials of CA1 pyramidal cells are recorded in current clamp mode, and postsynaptic potentials are evoked by test pulses of constant-current stimulation applied via a bipolar stimulating electrode placed 50-200 μm away in the stratum radiatum. Bicuculline (10 μM) is included in the bath to isolate excitatory postsynaptic potentials. After at least 10 min of consistent baseline recording, a high-frequency LTP induction stimulus (HFS, consisting of four 1 s, 100 Hz trains delivered every 15 s) is applied. EPSPs are recorded for 60 min following HFS. At the same time, dendrites are imaged at 40× magnification by fluorescence microscopy, using a shutter to limit fluorescent light exposure and prevent phototoxic injury to the slice. Serial images of dendrites are compared to detect development of focal swellings along dendritic shafts following HFS. Cells are scored as beaded if swellings develop along any of their dendrites.
Field potential recording and induction of LTP in hippocampal slices: Single-cell recordings are complemented by extracellular field potential recordings: while single cell recordings allow correlation of electrophysiologic data with dendritic beading in the same cell, extracellular recordings sample responses from populations of dendrites and are less invasive. […]

[3] = test system: iNOS expression in human primary monocytes; experiment: Tat-induced iNOS expression in primary monocytes; format: cell-based; details: for prevention of the anti-inflammatory effects of CGS21680 or IB-MECA, respectively: Tat-treated monocytes, iNOS/NO
Procedure: (§1) The effect of adenosine receptor activation on Tat-induced upregulation of iNOS expression and NO release was then determined. […] In contrast, incubation of cells with 1 μM R-PIA (an adenosine A1 receptor agonist) had no effect on Tat-induced iNOS expression or NO release (FIG. 11), implicating the A2A and A3 receptor subtypes in this anti-inflammatory effect. ZM241385 (an A2AR antagonist) or MRS 1220 (an A3R antagonist) could prevent the anti-inflammatory effects of CGS21680 or IB-MECA, respectively.

[4] = test system: NO release by human primary monocytes; experiment: Tat-induced nitric oxide release by primary monocytes (Griess reaction); format: cell-based; details: co-treatment with Tat, 8 h; R-PIA 1 μM
Procedure: Human primary monocytes were treated with Tat in the presence or absence of the indicated adenosine receptor agonists for 8 h, and nitric oxide levels in the culture medium of the cells were then quantitated using the Griess reaction (Active Motif). Data represent mean+SEM of three experiments.
as §1

cortical cultures = experiment: Tat-induced apoptotic cell death in cortical cultures
Procedure: Quantifying Cell Death: Cell death is assessed by visualizing fragmented DNA per the TUNEL method as described previously as well [Perry, S. W., et al., J Neurosci Res, 2004. […] Briefly, after treatment in 24 well plates, cells are fixed with Histochoice MB Tissue Fixative (Amresco) then TUNEL-labeled with the ApopTag kit (Chemicon) according to kit instructions. Cells are visualized under Hoffman modulation contrast optics using a 40× objective, and images taken of ten random fields per well from 3 replicate wells per condition. Data is expressed as percent Apoptag-positive neurons [(# Apoptag positive neurons/)(Total neurons))33 100] (or Trypan blue positive neurons where applicable) per field, then field values averaged for a mean cell death value per well. Mean values from 3 or more (see “power” calculations below) wells are averaged for a final mean cell death value for each condition±SEM; the analyses is made without knowledge of the treatment group.

[5] = test system: rat cerebellar granule neurons (CGNs); experiment: Tat-induced apoptosis of cerebellar granule neurons (TUNEL); format: cell-based; details: Tat 500 nM, 48 h
Procedure: CGNs were exposed to HIV-1 Tat (Tat, 500 nM), or vehicle alone (NT), in the presence or absence of the A2A antagonist, ZM241385. After 48 h, cultures were analyzed for the percentage of apoptotic cells using the TUNEL assay. Data represent mean±SEM for one experiment that was performed in triplicate; data are representative of two independent experiments.
CGNs were exposed to HIV-1 Tat (Tat, 500 nM), or vehicle alone (No Tat), in the presence or absence of the A2AR antagonists, ATL455 and ZM241385, or the A2AR agonists ATL313 and CGS21680. After 48 h, cultures were analyzed for the percentage of apoptotic cells using the TUNEL assay. Data represent mean±SEM for one experiment that was performed in triplicate; data are representative of two independent experiments.
(1) Primary rat cerebellar granule neurons (CGNs). CGNs represent a highly homogenous population of primary neurons which are susceptible to Tat and PAF-mediated cell killing and have been used in many of previous studies. CGN cells are isolated according to published procedures [Maggirwar, S. B., et al. 1999. J Neurochem 73:578-86] [Tong, N., et al. 2001. Eur J Neurosci 13:1913-22].
78(4): p. […] 22(6): p. 1102-6].
Primary rat cerebellar granule neurons (CGNs) were exposed to a neurotoxic concentration of HIV-1 Tat, in the presence or absence of an A2AR antagonist (ZM241385). […] It is important to note that CGNs express adenosine A2A receptors [Vacas, J., et al. 2003. Brain Res 992:272-280].
Primary cultures of rat cerebellar granule neurons (CGNs) were exposed to HIV-Tat ([…]) alone or together with increasing doses of the A2AR antagonist ATL-455 or A2A agonists ATL313 or CGS21680. Cells are treated with the test compounds for defined time intervals of up to 48 hours (1, 4, 8, 24, and 48 hours).

Molecule: N#CC(C#N)=NNc1ccc(OC(F)(F)F)cc1 [FCCP, Trifluorocarbonylcyanide Phenylhydrazone]
- effect on mitochondrial TMRE/M signal [1]: substantially diminished; also recorded: loss of TMRM signal
- effect on ΔΨm [1]: normalizes ΔΨm back to baseline levels but not below
- Beading Prediction [2]: Prevented
- LTP Prediction [2]: Achieved
- Δψm [2]: Normalized
- Δψm ([2]; FCCP, no neurotoxin (vehicle)): Slightly

Molecule: CNC(=O)[C@H]1O[C@@H](n2cnc3c(NCc4cccc(I)c4)ncnc32)[C@H](O)[C@@H]1O [IB-MECA]
- inhibition of Tat-induced iNOS expression ([3]; co-treatment with Tat): roughly 50%
- effect on Tat-induced NO secretion [4]: complete abrogation

Molecule: O=C(Cc1ccccc1)Nc1nc2ccc(Cl)cc2c2nc(-c3ccco3)nn12 [MRS 1220]
- prevention of the anti-inflammatory effects of CGS21680 or IB-MECA, respectively [3]: prevent

Molecule: C[C@H](Cc1ccccc1)Nc1ncnc2c1ncn2[C@@H]1O[C@H](CO)[C@@H](O)[C@H]1O [R-PIA]
- effect on Tat-induced iNOS expression ([3]; 1 μM): no effect
- effect on Tat-induced NO secretion [4]: no effect

Molecule: CCCCNC(=O)NS(=O)(=O)c1ccc(C)cc1 [Tolbutamide]
- effect on ΔΨm, alone ([1]; tolbutamide 100 μM alone): no significant effect
- effect on Tat mediated rise in ΔΨm ([1]; tolbutamide 100 μM, Tat 0.1 or 2.5 μg/ml, 1 and 24 hours): blocked; also recorded: completely prevented
- toxicity, alone (cortical cultures; tolbutamide 100 μM alone): no toxicity
- effect on Tat's induction of apoptotic cell death (cortical cultures; tolbutamide 100 μM, Tat 0.1 or 2.5 μg/ml, 24 hours): attenuating apoptotic cell death; also recorded: partially attenuated

Molecule: Nc1nc(NCCc2ccc(O)cc2)nc2nc(-c3ccco3)nn12 [ZM241385, 4(2-[7-Amino-2-(2-furyl)[1,2,4]triazolo[2,3-a][1,3,5]triazin-5-ylamino]ethyl)phenol]
- prevention of the anti-inflammatory effects of CGS21680 or IB-MECA, respectively [3]: prevent
- effect on Tat-induced neuronal apoptosis [5]: protect neurons; also recorded: protects neurons against Tat-induced apoptosis

Molecule: TNF-α
- effect on ΔΨm ([1]; neurotoxin alone): dose dependent increases
